Reference: patent US9617517B2, “Small chemical compound which promotes induction of differentiation of stem cells into insulin-producing cells and method for inducing differentiation of stem cells into insulin-producing cells using said small chemical compound” (NATIONAL UNIVERSITY CORPORATION KUMAMOTO UNIVERSITY, priority 2011, dated 2017)

How the values were obtained:
Ngn3/GFP mouse ES cells = assay: Ngn3 positive cell inducing rate; assay type: cell-based; conditions: TBZ 2.5 μM or dBu-cAMP 0.6 μM; addition days 9-11, 11-13 or 9-13; day 13 (FIG. 16C)
Description: The influence exerted on the Ngn3 positive cell inducing rate by addition of TBZ (2.5 μM) or dBu-cAMP (0.6 μM) was confirmed. FIG. 16A is a view schematically showing the addition periods of TBZ or dBu-cAMP, and the addition periods are a) on days 9 to 11 of culture, b) on days 11 to 13 of culture, and c) on days 9 to 13 of culture.
First, the compound was not added or TBZ was added on days 9 to 13 of culture (period c), and visible light photographs and fluorescence of Ngn3/GFP mouse ES cells were observed on day 13 of culture. The left one is a visible light photograph and the right one is fluorescence.
Next, the compound was not added, or TBZ or dBu-cAMP was added under the above-described conditions a), b) and c), and the proportion of GFP positive cells on day 13 of culture was checked. The ratios of the proportions of GFP positive cells and Ngn3 positive cells when the ratio in the case of no addition is 1 are shown in FIG. 16C. […] The order of intensity of the effect was a), c), b) in descending order.

differentiated ES cells = assay: Real time PCR of gene expression in differentiated ES cells; assay type: cell-based, mouse; conditions: TBZ 2.5 μM
VMAT2KD ES cells = assay: c-peptide amount of differentiated VMAT2KD ES cells (ELISA); assay type: cell-based, mouse; conditions: dBu-cAMP 0.6 μM (FIG. 12A)
Description: In the Vmat2-knockdown and Drd2-knockdown assays, Expression Arrest non-silencing control shRNA (Open Biosystems, #RHS4080), Vmat2 hRNA (Open Biosystems, #RMM3981-97058457 and #RMM3981-97058458) or Drd2 hRNA (Open Biosystems, #RMM3981-9594258) lentiviral vectors were used. For virus preparation, HEK293-FT cells (Invitrogen) were seeded on a plate medium the day before transfection. After overnight culture, the cells were transfected with lentiviral vectors and ViraPower™ Lentiviral Packaging Mix (Invitrogen) using FuGENE6 Transfection Reagent (Roche) according to the manufacturer's protocol. Cells were incubated in the ES maintenance medium for 24 hours, and viral supernatants were collected. Then, SK7 cells were infected with the viral supernatants. After incubation for 24 hours, the virus-containing medium was replaced with fresh ES maintenance medium. Further 24 hours later, the infected cells were selected using […] puromycin. The surviving cells were cloned as a knockdown-cell lines.
Differentiated ES cells were pre-incubated for 4 hours in low glucose (5.5 mM) Dulbecco's modified minimal essential medium with 1% fetal bovine serum. […] Insulin secretion into the culture medium and insulin content of the cell lysate were measured using the mouse c-peptide ELISA kit (Shibayagi. Co. Ltd., Japan). […]

What does the source list for `CCCC(=O)Nc1ncnc2c1ncn2[C@@H]1O[C@@H]2COP(=O)(O)O[C@H]2[C@H]1OC(=O)CCC` [Dibutyryl- cAMP, dibutyrate-cAMP]?
number of GFP positive cells (Ngn3/GFP mouse ES cells): increased in all conditions; expression of Abcc8 (differentiated ES cells; dBu-cAMP 0.6 μM (FIG. 13)): increased remarkably; expression of Glut2 (differentiated ES cells; dBu-cAMP 0.6 μM (FIG. 13)): increased remarkably; expression of MafA (differentiated ES cells; dBu-cAMP 0.6 μM (FIG. 13)): increased slightly; expression of Stx1 (differentiated ES cells; dBu-cAMP 0.6 μM (FIG. 13)): increased slightly; expression level of MafA, time course (differentiated ES cells; dBu-cAMP 0.6 μM from day 11, after day 13 (FIG. 15)): promoted; expression level of Ngn3 (differentiated ES cells; dBu-cAMP 0.6 μM from day 11, day 13 and day 15 (FIG. 15)): increased also; expression level of Insulin1 (differentiated ES cells; dBu-cAMP 0.6 μM from day 11, single after day 13, both after day 15 (FIG. 15)): promoted; c-peptide amount of differentiated cells (VMAT2KD ES cells): large increase in the c-peptide amount
